Experimental data published in patent US8969383B2, “Picolinamide derivatives as TTX-S blockers” (RaQualia Pharma Inc., priority 2009, dated 2015).

Tests used:
human Nav1.3 = target: T1, human Nav1.3 (Homo sapiens, UniProt Q9NY46); assay: FRET assay, human Nav1.3 channels expressed in HEK293 cells; format: cell-based; conditions: HEK293 cells expressing human NaV1.3, veratridine-opened channels
T1 construct: expressed in transfected cells; host or cells: HEK293
Experimental: (§1) The ability of the picolinamide derivatives of the formula (I) to inhibit the NaV1.3,Nav1.7 and Nav1.5 channels was measured by FRET assay and electrophysiology assay described below.
(§2) This screen is used to determine the effects of compounds on human Nav1.3, human Nav1.7, and human Nav1.5 channels, utilising the cell imaging technology by Hamamatsu Photonics's Functional Drug Screening System (FDSS). This experiment is based on FRET (Fluorescence Resonance Energy Transfer) and uses two fluorescent molecules. The first molecule, Oxonol (DiSBAC2(3)), is a highly fluorescent, negatively charged, hydrophobic ion that “senses” the trans-membrane electrical potential. In response to changes in membrane potential, it can rapidly redistribute between two binding sites on opposite sides of the plasma membrane. The voltage dependent redistribution is transduced into a ratiometric fluorescent readout via a second fluorescent molecule (Coumarin (CC2-DMPE)) that binds specifically to one face of the plasma membrane and functions as a FRET partner to the mobile voltage-sensing ion. To enable the assay to work, the channels have to be pharmacologically held in the open state. This is achieved by treating the cells with veratridine.
Each HEK293 cells expressing human NaV1.3 channels and HEK293 cells expressing human NaV1.5 channels were grown in T225 flasks, in a 5% CO2 humidified incubator to about 80% confluence. Media composition consisted of Dulbecco's Modified Eagle Medium (high glucose), 10% fetal calf serum (FCS), 100 units/ml Penicillin, 100 microgram/ml Streptomycin and 500 microgram/ml Geneticine.
(§3) • Seed each cell lines (1.5×10^4 cells/well) into poly-D-lysine coated 384-well plates prior to experimentation. • Incubate at 37° C. in 5% CO2 for 24 hours. • Wash each well with buffer #1 (140 mM NaCl, 4.5 mM KCl, 10 mM D-Glucose, 2 mM CaCl2, 1 mM MgCl2, 10 mM HEPES, pH 7.4 adjusted with NaOH) twice using plate washer. • Add 1st loading solution containing 5 μM CC2-DMPE and 0.02% Pluronic F-127 in buffer #1. • Incubate the plate at room temperature in dark for 0.5 hours. • Wash each well with buffer #2 (160 mM Choline, 10 mM D-Glucose, 0.1 mM CaCl2, 1 mM MgCl2, 10 mM HEPES, pH 7.4 adjusted with KOH) twice using plate washer. • Add 2nd loading solution containing 15 μM DiSBAC2(3), 0.5 mM VABSC-1, 10 μM veratridine and 0.004% Pluronic F-127 in buffer #2. • Add compound solutions into the assay plate and leave the plate for 30 minutes under the dark at room temperature. • Measure by FDSS.
(§4) The data was analyzed and reported as normalized ratios of intensities measured in the 465 nm and 575 nm channels. The process of calculating these ratios was performed as follows:
(§5) “FI465B”=the mean of fluorescence intensity as baseline (before Na+ ligand addition) at 465 nm
(§6) “FI575B”=the mean of fluorescence intensity as baseline (before Na+ ligand addition) at 575 nm
(§7) “FI465Max”=maximum fluorescence intensity at 465 nm after Na+ stimulation
(§8) “FI575 Min”=minimum fluorescence intensity at 575 nm after Na+ stimulation
(§9) This analysis was performed using a computerized specific program designed for FDSS generated data. Fluorescence ratio values were plotted using XLfit to determine an IC50 value for each compound.

human Nav1.7 = target: T2, human Nav1.7 (Homo sapiens, UniProt Q15858); assay: FRET assay, human Nav1.7 channels expressed in CHO cells; format: cell-based; conditions: CHO cells expressing human NaV1.7, veratridine-opened channels
T2 construct: expressed in transfected cells; host or cells: CHO
T2 sequence (Q15858 whole entry): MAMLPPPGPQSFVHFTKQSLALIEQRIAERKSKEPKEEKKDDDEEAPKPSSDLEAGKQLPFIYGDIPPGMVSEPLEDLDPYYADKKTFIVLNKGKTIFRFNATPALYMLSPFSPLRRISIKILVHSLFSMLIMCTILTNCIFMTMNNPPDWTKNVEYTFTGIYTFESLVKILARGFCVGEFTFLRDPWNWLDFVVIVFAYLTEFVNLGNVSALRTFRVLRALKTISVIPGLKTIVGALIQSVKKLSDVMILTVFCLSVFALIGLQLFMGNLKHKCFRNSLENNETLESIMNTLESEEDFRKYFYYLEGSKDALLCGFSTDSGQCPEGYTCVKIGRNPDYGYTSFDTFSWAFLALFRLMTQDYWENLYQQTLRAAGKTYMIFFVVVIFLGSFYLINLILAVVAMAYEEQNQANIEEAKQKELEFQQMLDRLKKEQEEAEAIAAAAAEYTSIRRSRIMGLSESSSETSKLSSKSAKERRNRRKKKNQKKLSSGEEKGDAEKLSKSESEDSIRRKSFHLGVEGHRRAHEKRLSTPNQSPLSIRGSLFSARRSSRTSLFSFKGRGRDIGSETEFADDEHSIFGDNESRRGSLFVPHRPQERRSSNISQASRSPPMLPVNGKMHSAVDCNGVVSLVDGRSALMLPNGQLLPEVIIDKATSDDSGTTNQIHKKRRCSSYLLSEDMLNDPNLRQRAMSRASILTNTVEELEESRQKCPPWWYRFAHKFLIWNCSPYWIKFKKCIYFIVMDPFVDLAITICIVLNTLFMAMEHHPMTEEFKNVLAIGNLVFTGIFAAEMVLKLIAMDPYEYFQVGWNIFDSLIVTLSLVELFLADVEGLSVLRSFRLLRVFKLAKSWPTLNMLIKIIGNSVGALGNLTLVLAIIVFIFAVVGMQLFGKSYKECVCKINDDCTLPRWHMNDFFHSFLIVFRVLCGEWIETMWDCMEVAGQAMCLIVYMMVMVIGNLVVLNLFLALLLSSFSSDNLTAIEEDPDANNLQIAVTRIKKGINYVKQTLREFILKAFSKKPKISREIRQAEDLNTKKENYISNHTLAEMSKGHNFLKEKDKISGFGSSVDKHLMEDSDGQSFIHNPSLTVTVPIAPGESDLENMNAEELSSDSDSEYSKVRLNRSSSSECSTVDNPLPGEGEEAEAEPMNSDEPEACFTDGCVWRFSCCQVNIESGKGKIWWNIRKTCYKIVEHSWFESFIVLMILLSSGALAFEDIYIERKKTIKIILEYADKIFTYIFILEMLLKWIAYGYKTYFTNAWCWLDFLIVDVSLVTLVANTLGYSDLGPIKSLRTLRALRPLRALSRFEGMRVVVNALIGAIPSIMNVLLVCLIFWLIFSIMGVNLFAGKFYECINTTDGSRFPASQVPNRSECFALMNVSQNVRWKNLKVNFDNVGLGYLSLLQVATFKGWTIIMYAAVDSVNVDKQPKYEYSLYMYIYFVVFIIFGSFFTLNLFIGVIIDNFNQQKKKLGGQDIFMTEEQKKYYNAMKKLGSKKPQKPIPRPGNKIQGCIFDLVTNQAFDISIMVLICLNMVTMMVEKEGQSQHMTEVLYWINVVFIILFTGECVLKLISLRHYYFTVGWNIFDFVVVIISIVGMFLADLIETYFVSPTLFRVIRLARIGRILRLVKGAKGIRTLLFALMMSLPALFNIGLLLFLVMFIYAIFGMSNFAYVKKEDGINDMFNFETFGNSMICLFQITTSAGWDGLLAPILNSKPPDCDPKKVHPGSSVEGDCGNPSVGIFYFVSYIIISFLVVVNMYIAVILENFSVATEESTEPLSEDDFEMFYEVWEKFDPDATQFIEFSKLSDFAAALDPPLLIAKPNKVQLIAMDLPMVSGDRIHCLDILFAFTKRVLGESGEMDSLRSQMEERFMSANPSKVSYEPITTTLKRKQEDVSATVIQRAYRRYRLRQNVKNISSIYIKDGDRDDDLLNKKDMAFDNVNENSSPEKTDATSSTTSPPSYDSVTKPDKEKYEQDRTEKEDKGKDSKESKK
Experimental: as §1, §2
CHO cells expressing human NaV1.7 channels were grown in T225 flasks, in a 5% CO 2 humidified incubator to about 80% confluence. Media composition consisted of HAM/F12 with Glutamax 1.10% fetal calf serum (FCS), 100 units/ml Penicillin and 100 microgram/ml Hygromycin.
as §3, §4, §5, §6, §7, §8, §9

T1 sequence (Q9NY46 whole entry): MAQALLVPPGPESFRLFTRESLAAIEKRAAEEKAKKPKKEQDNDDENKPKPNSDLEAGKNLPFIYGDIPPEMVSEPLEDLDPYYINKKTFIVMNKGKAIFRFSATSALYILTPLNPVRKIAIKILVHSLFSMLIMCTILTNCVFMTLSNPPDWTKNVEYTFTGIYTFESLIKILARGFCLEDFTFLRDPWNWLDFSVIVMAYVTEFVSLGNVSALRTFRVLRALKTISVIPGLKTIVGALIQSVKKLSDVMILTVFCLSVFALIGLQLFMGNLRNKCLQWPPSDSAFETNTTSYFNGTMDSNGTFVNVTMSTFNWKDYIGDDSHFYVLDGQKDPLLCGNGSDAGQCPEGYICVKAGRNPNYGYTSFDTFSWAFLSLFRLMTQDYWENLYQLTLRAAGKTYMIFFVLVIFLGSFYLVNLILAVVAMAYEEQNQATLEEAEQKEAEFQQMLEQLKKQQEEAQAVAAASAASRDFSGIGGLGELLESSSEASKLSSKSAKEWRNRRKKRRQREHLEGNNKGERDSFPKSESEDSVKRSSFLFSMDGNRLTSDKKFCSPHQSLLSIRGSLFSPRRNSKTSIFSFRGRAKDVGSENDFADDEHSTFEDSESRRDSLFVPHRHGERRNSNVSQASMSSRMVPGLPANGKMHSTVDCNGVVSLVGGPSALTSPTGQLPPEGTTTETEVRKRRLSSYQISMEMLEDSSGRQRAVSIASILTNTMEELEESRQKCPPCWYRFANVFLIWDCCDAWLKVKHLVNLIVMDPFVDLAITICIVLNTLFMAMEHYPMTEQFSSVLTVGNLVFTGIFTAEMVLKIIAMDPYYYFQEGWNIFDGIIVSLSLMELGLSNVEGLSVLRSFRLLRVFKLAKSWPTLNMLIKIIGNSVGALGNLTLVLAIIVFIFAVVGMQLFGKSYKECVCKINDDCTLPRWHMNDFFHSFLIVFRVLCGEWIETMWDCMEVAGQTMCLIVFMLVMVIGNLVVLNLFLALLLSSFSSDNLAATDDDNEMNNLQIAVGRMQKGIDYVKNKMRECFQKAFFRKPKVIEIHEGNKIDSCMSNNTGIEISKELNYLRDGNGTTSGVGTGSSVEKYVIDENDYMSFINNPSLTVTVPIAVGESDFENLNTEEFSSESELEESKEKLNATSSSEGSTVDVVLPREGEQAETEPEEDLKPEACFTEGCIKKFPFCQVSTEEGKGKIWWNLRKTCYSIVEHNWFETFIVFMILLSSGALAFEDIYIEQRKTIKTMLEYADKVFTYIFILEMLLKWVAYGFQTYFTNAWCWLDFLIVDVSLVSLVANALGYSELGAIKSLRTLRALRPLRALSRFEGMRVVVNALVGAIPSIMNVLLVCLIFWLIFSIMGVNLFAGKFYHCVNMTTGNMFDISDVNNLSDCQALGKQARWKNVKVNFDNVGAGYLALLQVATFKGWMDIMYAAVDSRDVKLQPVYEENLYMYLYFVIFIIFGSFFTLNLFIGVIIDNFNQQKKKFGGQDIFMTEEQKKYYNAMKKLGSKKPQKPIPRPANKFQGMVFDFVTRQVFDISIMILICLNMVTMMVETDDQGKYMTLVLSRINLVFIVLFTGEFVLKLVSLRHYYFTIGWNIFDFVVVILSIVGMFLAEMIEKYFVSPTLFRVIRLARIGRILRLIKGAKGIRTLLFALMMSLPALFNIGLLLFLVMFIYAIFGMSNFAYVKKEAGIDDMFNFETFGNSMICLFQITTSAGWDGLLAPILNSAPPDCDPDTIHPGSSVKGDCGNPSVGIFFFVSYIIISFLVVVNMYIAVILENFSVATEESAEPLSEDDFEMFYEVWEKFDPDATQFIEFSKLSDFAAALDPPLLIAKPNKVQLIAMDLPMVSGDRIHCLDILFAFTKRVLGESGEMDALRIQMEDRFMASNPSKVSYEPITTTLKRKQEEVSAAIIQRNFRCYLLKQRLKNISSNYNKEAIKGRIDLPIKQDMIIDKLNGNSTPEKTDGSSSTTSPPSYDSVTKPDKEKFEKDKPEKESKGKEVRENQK

NC(=O)c1ncccc1OC[C@@H]1CCCN1C(=O)[C@H]1CC[C@@H](C(F)(F)F)CC1 [Example 2, 3-(((S)-1-(cis-4-(trifluoromethyl)cyclohexanecarbonyl)pyrrolidin-2-yl)methoxy)picolinamide]
IC50 (human Nav1.3): ≤ 500 nM | IC50 (human Nav1.7): ≤ 500 nM

NC(=O)c1ncccc1OC[C@H]1CCCN1C(=O)c1ccc(C(F)(F)F)cc1 [Example 5, (R)-3-((1-(4-(trifluoromethyl)benzoyl)pyrrolidin-2-yl)methoxy) picolinamide]
IC50 (human Nav1.3): ≤ 500 nM | IC50 (human Nav1.7): ≤ 500 nM

CC(C)(C)c1cc(C(=O)N2CCC[C@@H]2COc2cccnc2C(N)=O)no1 [Example 17, (R)-3-((1-(5-tert-butylisoxazole-3-carbonyl)pyrrolidin-2-yl)methoxy)picolinamide]
IC50 (human Nav1.3): ≤ 500 nM | IC50 (human Nav1.7): ≤ 500 nM

NC(=O)c1ncccc1OC[C@H]1CCCN1C(=O)COc1ccc(C(F)(F)F)cc1 [Example 18, (R)-3-((1-(2-(4-(trifluoromethyl)phenoxy)acetyl)pyrrolidin-2-yl)methoxy)picolinamide]
IC50 (human Nav1.3): ≤ 500 nM | IC50 (human Nav1.7): ≤ 500 nM

NC(=O)c1ncccc1OC[C@H]1CCCN1C(=O)c1ccc(OCC(F)(F)F)cc1 [Example 21, (R)-3-((1-(4-(2,2,2-trifluoroethoxy)benzoyl)pyrrolidin-2-yl)methoxy)picolinamide]
IC50 (human Nav1.3): ≤ 500 nM | IC50 (human Nav1.7): ≤ 500 nM

NC(=O)c1ncccc1OC[C@H]1CCCN1C(=O)c1ccc(OC(F)(F)F)cc1 [Example 25, (R)-3-((1-(4-(trifluoromethoxy)benzoyl)pyrrolidin-2-yl)methoxy) picolinamide]
IC50 (human Nav1.3): ≤ 500 nM | IC50 (human Nav1.7): ≤ 500 nM

NC(=O)c1ncc(Cl)cc1OC[C@H]1CCCN1C(=O)[C@H]1CC[C@@H](C(F)(F)F)CC1 [Example 29, 5-chloro-3-(((R)-1-(cis-4-(trifluoromethyl)cyclohexanecarbonyl)pyrrolidin-2-yl)methoxy)picolinamide]
IC50 (human Nav1.3): ≤ 500 nM | IC50 (human Nav1.7): ≤ 500 nM

NC(=O)c1ncc(Cl)cc1OC[C@H]1CCCN1C(=O)[C@H]1CC[C@H](C(F)(F)F)CC1 [Example 30, 5-chloro-3-(((R)-1-(trans-4-(trifluoromethyl)cyclohexanecarbonyl)pyrrolidin-2-yl)methoxy)picolinamide]
IC50 (human Nav1.3): ≤ 500 nM | IC50 (human Nav1.7): ≤ 500 nM

COc1cnc(C(N)=O)c(OC[C@H]2CCCN2C(=O)[C@H]2CC[C@H](C(F)(F)F)CC2)c1 [Example 31, 5-methoxy-3-(((R)-1-(trans-4-(trifluoromethyl)cyclohexanecarbonyl)pyrrolidin-2-yl)methoxy)picolinamide]
IC50 (human Nav1.3): ≤ 500 nM | IC50 (human Nav1.7): ≤ 500 nM

COC(=O)CNC(=O)c1ncccc1OC[C@H]1CCCN1C(=O)[C@H]1CC[C@H](C(F)(F)F)CC1 [Example 35, methyl 2-(3-(((R)-1-(trans-4-(trifluoromethyl)cyclohexanecarbonyl)pyrrolidin-2-yl)methoxy)picolinamido)acetate]
IC50 (human Nav1.3): ≤ 500 nM | IC50 (human Nav1.7): ≤ 500 nM

COCCNC(=O)c1ncccc1OC[C@H]1CCCN1C(=O)[C@H]1CC[C@H](C(F)(F)F)CC1 [Example 37, N-(2-methoxyethyl)-3-(((R)-1-(trans-4-(trifluoromethyl)cyclohexanecarbonyl)pyrrolidin-2-yl)methoxy)picolinamide]
IC50 (human Nav1.3): ≤ 500 nM | IC50 (human Nav1.7): ≤ 500 nM

O=C(NCC1(O)CCCCC1)c1ncccc1OC[C@H]1CCCN1C(=O)[C@H]1CC[C@H](C(F)(F)F)CC1 [Example 39, N-((1-hydroxycyclohexyl)methyl)-3-(((R)-1-(trans-4-(trifluoromethyl)cyclohexanecarbonyl)pyrrolidin-2-yl)methoxy)picolinamide]
IC50 (human Nav1.3): ≤ 500 nM | IC50 (human Nav1.7): ≤ 500 nM

O=C(NCc1ccccn1)c1ncccc1OC[C@H]1CCCN1C(=O)[C@H]1CC[C@H](C(F)(F)F)CC1 [Example 40, N-(pyridin-2-ylmethyl)-3-(((R)-1-(trans-4-(trifluoromethyl)cyclohexanecarbonyl)pyrrolidin-2-yl)methoxy)picolinamide]
IC50 (human Nav1.3): ≤ 500 nM | IC50 (human Nav1.7): ≤ 500 nM

O=C(NCc1ccccc1)c1ncccc1OC[C@H]1CCCN1C(=O)[C@H]1CC[C@H](C(F)(F)F)CC1 [Example 41, N-benzyl-3-(((R)-1-(trans-4-(trifluoromethyl)cyclohexanecarbonyl)pyrrolidin-2-yl)methoxy) picolinamide]
IC50 (human Nav1.3): ≤ 500 nM | IC50 (human Nav1.7): ≤ 500 nM

O=C(N[C@H](CO)c1ccccc1)c1ncccc1OC[C@H]1CCCN1C(=O)[C@H]1CC[C@H](C(F)(F)F)CC1 [Example 43, N-((S)-2-hydroxy-1-phenylethyl)-3-(((R)-1-(trans-4-(trifluoromethyl)cyclohexanecarbonyl)pyrrolidin-2-yl)methoxy) picolinamide]
IC50 (human Nav1.3): ≤ 500 nM | IC50 (human Nav1.7): ≤ 500 nM

O=C(Nc1ncns1)c1ncccc1OC[C@H]1CCCN1C(=O)[C@H]1CC[C@H](C(F)(F)F)CC1 [Example 47, N-(1,2,4-thiadiazol-5-yl)-3-(((R)-1-(trans-4-(trifluoromethyl)cyclohexanecarbonyl)pyrrolidin-2-yl)methoxy) picolinamide]
IC50 (human Nav1.3): ≤ 500 nM | IC50 (human Nav1.7): ≤ 500 nM

O=C(NC1CCOCC1)c1ncccc1OC[C@H]1CCCN1C(=O)[C@H]1CC[C@H](C(F)(F)F)CC1 [Example 49, N-(tetrahydro-2H-pyran-4-yl)-3-(((R)-1-(trans-4-(trifluoromethyl)cyclohexanecarbonyl)pyrrolidin-2-yl)methoxy) picolinamide]
IC50 (human Nav1.3): ≤ 500 nM | IC50 (human Nav1.7): ≤ 500 nM

O=C(Nc1ccon1)c1ncccc1OC[C@H]1CCCN1C(=O)[C@H]1CC[C@H](C(F)(F)F)CC1 [Example 54, N-(isoxazol-3-yl)-3-(((R)-1-(trans-4-(trifluoromethyl)cyclohexanecarbonyl)pyrrolidin-2-yl)methoxy)picolinamide]
IC50 (human Nav1.3): ≤ 500 nM | IC50 (human Nav1.7): ≤ 500 nM

O=C(Nc1ncco1)c1ncccc1OC[C@@H]1CCCN1C(=O)[C@H]1CC[C@@H](C(F)(F)F)CC1 [Example 62, N-(oxazol-2-yl)-3-(((S)-1-(cis-4-(trifluoromethyl)cyclohexanecarbonyl)pyrrolidin-2-yl)methoxy)picolinamide]
IC50 (human Nav1.3): ≤ 500 nM | IC50 (human Nav1.7): ≤ 500 nM

O=C(Nc1ncco1)c1ncccc1OC[C@H]1CCCN1C(=O)[C@H]1CC[C@@H](C(F)(F)F)CC1 [Example 63, N-(oxazol-2-yl)-3-(((R)-1-(cis-4-(trifluoromethyl)cyclohexanecarbonyl)pyrrolidin-2-yl)methoxy)picolinamide]
IC50 (human Nav1.3): ≤ 500 nM | IC50 (human Nav1.7): ≤ 500 nM

O=C(Nc1ccon1)c1ncccc1OC[C@H]1CCCN1C(=O)c1cc(C2CC2)on1 [Example 65]
IC50 (human Nav1.3): ≤ 500 nM | IC50 (human Nav1.7): ≤ 500 nM

O=C(Nc1ccon1)c1ncccc1OC[C@H]1CCCN1C(=O)CC1CCC(F)(F)CC1 [Example 66, (R)-3-((1-(2-(4,4-difluorocyclohexyl)acetyl)pyrrolidin-2-yl)methoxy)-N-(isoxazol-3-yl)picolinamide]
IC50 (human Nav1.3): ≤ 500 nM | IC50 (human Nav1.7): ≤ 500 nM

O=C(NCCN1CCOCC1)c1ncccc1OC[C@H]1CCCN1C(=O)c1cccc(C(F)(F)F)c1 [Example 68, (R)-N-(2-morpholinoethyl)-3-((1-(3-(trifluoromethyl)benzoyl)pyrrolidin-2-yl)methoxy) picolinamide]
IC50 (human Nav1.3): ≤ 500 nM | IC50 (human Nav1.7): ≤ 500 nM

O=C(NCCO)c1ncccc1OC[C@H]1CCCN1C(=O)c1cccc(C(F)(F)F)c1 [Example 69, (R)-N-(2-hydroxyethyl)-3-((1-(3-(trifluoromethyl)benzoyl)pyrrolidin-2-yl)methoxy) picolinamide]
IC50 (human Nav1.3): ≤ 500 nM | IC50 (human Nav1.7): ≤ 500 nM
